The source of these data is US20260174875A1 (Novo Nordisk A/S, priority 2023, published 2026).

The structures appear in SMILES notation. Read-outs that look alike come from different tables or passages of the source.

Data set [1] is described as follows: Chemical stability assessment in formulation (UPLC-UV-MS purity loss at 37° C.). The format is physicochemical. As to conditions: 8 mM phosphate buffer pH 7.4, 1 mg/mL, 2 weeks. In outline: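 Degradation tracked by UPLC-UV-MS (formic acid/acetonitrile gradient) on samples drawn over 2 weeks at 37° C. Solutions were made at a 1 mg/mL target in 8 mM phosphate, pH 7.4, kept in sealed vials and frozen after sampling.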

Data set [2] has as its target T1, human amylin receptor (hAMYR3) (Homo sapiens, UniProt O60896+P30988).
T1 construct: host or cells: BHK cells (Hollex-1 line expressing hCTR(a) and CRE-Luc), further transfected with human RAMP3
Briefly: Amylin receptor assay, method B (CRE-luciferase reporter, BHK cells). The format is cell-based. In outline:
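BHK cells with CRE-luciferase, co-expressing hAMYR3 and transfected with human RAMP3, seeded overnight, then exposed 3 h at 37 °C to compound. Buffer: phenol red-free DMEM, 10 mM HEPES, 1% ovalbumin, with 0% or 1% (w/v) HSA. Luminescence read after 30 min with steadylite Plus.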

In data set [3] the target is T2, human GLP-1 receptor (hGLP-1R) (Homo sapiens, UniProt P43220).
T2 construct: expressed in transfected cells
T2 sequence (P43220 24-463): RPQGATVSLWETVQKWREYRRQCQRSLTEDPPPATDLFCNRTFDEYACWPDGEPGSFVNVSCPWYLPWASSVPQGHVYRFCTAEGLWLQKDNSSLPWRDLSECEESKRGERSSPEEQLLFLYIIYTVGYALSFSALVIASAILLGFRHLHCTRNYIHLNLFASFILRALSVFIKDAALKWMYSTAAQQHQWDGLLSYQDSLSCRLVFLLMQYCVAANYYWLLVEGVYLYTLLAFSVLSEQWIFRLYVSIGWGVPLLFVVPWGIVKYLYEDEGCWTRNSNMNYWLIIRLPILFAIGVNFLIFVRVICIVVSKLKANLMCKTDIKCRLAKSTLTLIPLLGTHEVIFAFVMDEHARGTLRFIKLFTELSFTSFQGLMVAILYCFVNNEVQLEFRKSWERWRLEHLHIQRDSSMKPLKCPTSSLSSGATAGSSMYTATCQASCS
Briefly: GLP-1 receptor assay, method B (CRE-luciferase reporter, BHK cells, 384-well). The format is cell-based.

In data set [4] the target is T3, human GIP receptor (hGIPR) (Homo sapiens, UniProt P48546).
T3 construct: expressed in transfected cells
T3 sequence (P48546 22-466): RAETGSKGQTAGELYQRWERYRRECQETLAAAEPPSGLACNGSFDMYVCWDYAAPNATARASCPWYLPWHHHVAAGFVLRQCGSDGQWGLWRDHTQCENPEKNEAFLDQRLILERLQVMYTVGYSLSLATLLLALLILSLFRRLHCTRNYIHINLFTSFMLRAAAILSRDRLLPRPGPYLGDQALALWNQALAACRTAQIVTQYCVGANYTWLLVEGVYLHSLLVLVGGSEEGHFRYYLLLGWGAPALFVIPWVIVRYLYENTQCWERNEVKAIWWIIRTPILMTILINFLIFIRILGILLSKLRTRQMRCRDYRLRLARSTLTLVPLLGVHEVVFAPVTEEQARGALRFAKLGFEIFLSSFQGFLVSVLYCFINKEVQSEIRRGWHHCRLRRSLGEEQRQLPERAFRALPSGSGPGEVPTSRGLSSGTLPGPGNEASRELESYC
The data set can be described thus: GIP receptor assay, method B (CRE-luciferase reporter, BHK cells, 384-well). The format is cell-based.
Description: To assess how the activation of the receptors is potentially influenced by the presence of human serum albumin (HSA), the in vitro assays were performed in the absence of HSA and presence of 1% (w/v) HSA.
Activation of the human GIP receptor leads to increased intra-cellular concentrations of cyclic AMP (cAMP) and the consequent transcription activation from promoters containing multiple copies of the cAMP response element (CRE). It is thus possible to measure GIP receptor activity using a CRE-luciferase reporter gene introduced into Baby Hamster Kidney (BHK) cells co-expressing the human GIP receptor.
Cells at about 80-90% confluency were washed once with PBS (Gibco 14190-094) and detached from the cell flasks with Versene (Gibco, 15040-066). After centrifugation, the cells were counted, resuspended and diluted to approximately 1.5-3.0×10^6 (1.5E+6 to 3.0E+6) cells/mL in Recovery Cell Culture Freezing Medium (Gibco, 12648-010) and stored at −180° C. in suitable aliquots until use.
The assay buffer consisted of DMEM without phenol red (Gibco, 11880-028) supplemented with 1× GlutaMAX (Gibco, 35050-038), 10 mM HEPES (Gibco, 15630-056), 1% (w/v) ovalbumin (Sigma, A5503) and 0.1% (v/v) Pluronic F-68 (Gibco, 24040-032) either with HSA or without HSA (Sigma, A9511).
Serial dilutions were transferred to a 384-well assay plate (PerkinElmer/Revvity, 6007688) and mixed with an equal volume (10 μL) of assay buffer without or with 3% HSA (Sigma, A-9511). Frozen stocks of hGIPR BHK Cre-Luc cells were thawed in a 37° C. water bath, washed once in PBS (Gibco 14190-094), diluted to 1.5×10^5 (1.5E+5) cells/mL in assay buffer (without HSA) and added (10 μL) to each well of the 384-well assay plate. After a short centrifugation, the assay plates were incubated for 3 hours at 37° C. in 5% CO2 and let to equilibrated at room temperature for 10 minutes before the addition of 30 μL steadylite Plus™ (PerkinElmer/Revvity, 6066759) per well. Plates were sealed and incubated at room temperature with gentle shaking for 30 minutes while protected from light. Luminescence was detected on a luminescence plate reader e.g. a Synergy 2 (BioTek).

Data set [5] concerns Male Sprague Dawley (SD) rats. Briefly: Efficacy testing on appetite: acute food intake in ad libitum fed normal weight rats. The format is in vivo, rat. The conditions noted are these: single dose 10 nmol/kg. The text has this:
Male Sprague Dawley (SD) rats from Taconic, Denmark were used for the acute food intake experiments, wherein the principles of laboratory animal care were followed.
The rats arrived at least 10-14 days before the start of the experiment to allow acclimatization to experimental settings. During this period, the animals were handled (fixation by restrain in neck skin) at least 2 times. Immediately upon arrival, rats were changed to a reversed light cycle (dark from 11 am-11 pm) and were transferred to an automated food intake measuring system (HM2 system, MBRose; Faaborg, Denmark). […] To enable recording of individual food intake, rats were ID chipped. Three rats were housed in each cage. During the acclimatization period, in which the rats get used to the new light cycle and diet (LF 10% (D12450B), from Research Diets Inc.), the animals had free access to food and water. Since rats are normally active and consume most of their daily calories during the dark period, rats were dosed in the morning right before lights were turned off. Such a set-up results in the lowest data variation and highest test sensitivity. […] In each cage there were animals from three different treatment groups (to eliminate potential cage effects (e.g. cage malfunction) on primary readout: food intake). The rats were dosed once subcutaneously (s.c.) with the peptide of interest according to body weight (10 or 30 nmol/kg) in vehicle (0.5 ml/kg) using a NovoPen® (Novo Nordisk, Bagsvæed, Denmark).
The compounds of the invention were formulated (20 or 60 nmol/ml) in the following vehicle: 8 mM phosphate; 250 mM glycerol; 0.007% polysorbate 20, pH 7.4.
After dosing, the rats were returned to their home cages, where they continued to have ad libitum access to chow and water. The food consumption was recorded individually and continuously by the HM2 system from 0-72 h after test compound administration. Data obtained by the HM-2 system were stored in a HMBase SQL database (Firebird® relational database management system) and were processed by HM2Lab software (MBRose; Faaborg, Denmark) installed in an embedded computer. The feeding system is a highly sensitive system with a load resolution of 0.001 g.

Setting [6] is: hAMYR3 Potency, 1% HSA, EC50, methods B, in the presence of 1% HSA.
Where [7] appears, read: method B, absence of HSA, read-out: hAMYR3 Potency, no HSA, EC50.
Setting [8] is: hGLP-1R Potency, 1% HSA, EC50, methods B, in the presence of 1% HSA.
[9] abbreviates: hGIPR Potency, 1% HSA, EC50, methods B, in the presence of 1% HSA.
[10] abbreviates: method B, absence of HSA, read-out: hGIPR Potency, no HSA, EC50.

T1 sequence (P30988 25-474): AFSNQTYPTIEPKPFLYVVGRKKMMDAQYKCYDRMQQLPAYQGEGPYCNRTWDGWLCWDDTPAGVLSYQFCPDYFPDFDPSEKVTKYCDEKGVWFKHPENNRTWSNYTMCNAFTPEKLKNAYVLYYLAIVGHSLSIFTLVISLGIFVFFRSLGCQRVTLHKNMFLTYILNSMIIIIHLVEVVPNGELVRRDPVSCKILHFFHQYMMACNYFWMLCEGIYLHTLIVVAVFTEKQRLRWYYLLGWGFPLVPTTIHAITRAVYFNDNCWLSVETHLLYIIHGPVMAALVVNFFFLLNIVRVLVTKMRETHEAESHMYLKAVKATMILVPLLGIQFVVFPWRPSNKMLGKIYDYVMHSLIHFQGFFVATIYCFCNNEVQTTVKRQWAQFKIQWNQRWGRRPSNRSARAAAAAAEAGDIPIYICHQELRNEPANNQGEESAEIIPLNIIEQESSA
T1 sequence (O60896 24-148): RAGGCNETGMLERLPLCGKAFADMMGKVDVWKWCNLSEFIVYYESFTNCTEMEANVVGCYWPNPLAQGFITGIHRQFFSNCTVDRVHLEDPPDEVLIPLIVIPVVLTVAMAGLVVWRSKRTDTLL

As for `CC[C@H](C)[C@H](NC(=O)[C@H](CCC(=O)O)NC(=O)[C@H](CCC(=O)O)NC(=O)[C@H](CC(C)C)NC(=O)[C@H](CC(C)C)NC(=O)[C@H](CCCCNC(=O)COCCOCCNC(=O)COCCOCCNC(=O)CC[C@H](NC(=O)CCCCCCCCCCCCCCCCCCC(=O)O)C(=O)O)NC(=O)[C@H](CO)NC(=O)[C@H](Cc1ccc(O)cc1)NC(=O)[C@H](CC(=O)O)NC(=O)[C@H](CO)NC(=O)[C@@H](NC(=O)[C@H](Cc1ccccc1)NC(=O)[C@@H](NC(=O)CNC(=O)[C@H](CCC(=O)O)NC(=O)C(C)(C)NC(=O)[C@@H](N)Cc1ccc(O)cc1)[C@@H](C)O)[C@@H](C)O)C(=O)N[C@@H](C)C(=O)N[C@@H](C)C(=O)N[C@@H](CCCNC(=N)N)C(=O)N[C@@H](CCC(=O)O)C(=O)N[C@@H](Cc1ccccc1)C(=O)N[C@H](C(=O)N[C@@H](CCC(=O)O)C(=O)N[C@@H](Cc1c[nH]c2ccccc12)C(=O)N[C@@H](CC(C)C)C(=O)N[C@@H](CC(C)C)C(=O)N[C@@H](C)C(=O)NCC(=O)NCC(=O)N1CCC[C@H]1C(=O)N[C@@H](CO)C(=O)N[C@@H](CO)C(=O)NCC(=O)N[C@@H](C)C(=O)NCC(=O)N[C@@H](C)C(=O)N[C@@H](CO)C(=O)N[C@@H](CCC(=O)O)C(=O)N[C@@H](CC(C)C)C(=O)N[C@@H](CO)C(=O)N[C@H](C(=O)N[C@@H](C)C(=O)N[C@@H](CCC(N)=O)C(=O)N[C@@H](CC(C)C)C(=O)NCC(=O)N[C@@H](CCCNC(=N)N)C(=O)N[C@@H](CC(C)C)C(=O)N[C@@H](CO)C(=O)N[C@@H](C)C(=O)N[C@@H](CCC(=O)O)C(=O)N[C@@H](CC(C)C)C(=O)N[C@@H](Cc1c[nH]cn1)C(=O)N[C@@H](CCC(N)=O)C(=O)N[C@@H](CC(C)C)C(=O)N[C@@H](C)C(=O)N[C@H](C(=O)N[C@@H](CC(C)C)C(=O)N1CCC[C@H]1C(=O)N[C@@H](CCCNC(=N)N)C(=O)N[C@H](C(=O)N[C@@H](CCC(=O)O)C(=O)N[C@H](C(=O)NCC(=O)N[C@@H](CO)C(=O)NCC(=O)N[C@@H](CO)C(=O)N1CCC[C@H]1C(N)=O)[C@@H](C)O)[C@@H](C)O)[C@@H](C)O)[C@@H](C)O)[C@@H](C)CC` [Compound 183], the “Purity loss per week at 37° C.” value in data set [1] is recorded as 1.3%. Further, the EC50 worked out at 0.108 nM in data set [2] (setting [6]); 0.0062 nM in data set [2] (setting [7]); 0.744 nM in data set [3] (setting [8]); 0.0714 nM in data set [4] (setting [9]); 0.002 nM in data set [4] (setting [10]).
Regarding `CC[C@H](C)[C@H](NC(=O)[C@H](CCC(=O)O)NC(=O)[C@H](CCC(=O)O)NC(=O)[C@H](CC(C)C)NC(=O)[C@H](CC(C)C)NC(=O)[C@@H](NC(=O)[C@H](CO)NC(=O)[C@H](Cc1ccc(O)cc1)NC(=O)[C@H](CC(=O)O)NC(=O)[C@H](CO)NC(=O)[C@@H](NC(=O)[C@H](Cc1ccccc1)NC(=O)[C@@H](NC(=O)CNC(=O)[C@H](CCC(=O)O)NC(=O)C(C)(C)NC(=O)[C@@H](N)Cc1ccc(O)cc1)[C@@H](C)O)[C@@H](C)O)[C@@H](C)CC)C(=O)N[C@@H](C)C(=O)N[C@@H](C)C(=O)N[C@@H](CCCNC(=N)N)C(=O)N[C@@H](CCC(=O)O)C(=O)N[C@@H](Cc1ccccc1)C(=O)N[C@H](C(=O)N[C@@H](CCC(=O)O)C(=O)N[C@@H](Cc1c[nH]c2ccccc12)C(=O)N[C@@H](CC(C)C)C(=O)N[C@@H](CC(C)C)C(=O)N[C@@H](C)C(=O)NCC(=O)NCC(=O)N1CCC[C@H]1C(=O)N[C@@H](CO)C(=O)N[C@@H](CO)C(=O)NCC(=O)N[C@@H](C)C(=O)NCC(=O)N[C@@H](C)C(=O)N[C@@H](CO)C(=O)N[C@@H](CCC(=O)O)C(=O)N[C@@H](CC(C)C)C(=O)N[C@@H](CO)C(=O)N[C@H](C(=O)N[C@@H](C)C(=O)N[C@@H](CCC(N)=O)C(=O)N[C@H](C(=O)N[C@@H](CCC(N)=O)C(=O)N[C@@H](CCCNC(=N)N)C(=O)N[C@@H](CC(C)C)C(=O)N[C@@H](CO)C(=O)N[C@@H](C)C(=O)N[C@@H](CCC(=O)O)C(=O)N[C@@H](CC(C)C)C(=O)N[C@@H](Cc1c[nH]cn1)C(=O)N[C@@H](CCCCNC(=O)COCCOCCNC(=O)COCCOCCNC(=O)CC[C@H](NC(=O)CCCCCCCCCCCCCCCCCCC(=O)O)C(=O)O)C(=O)N[C@@H](CC(C)C)C(=O)N[C@@H](C)C(=O)N[C@H](C(=O)N[C@@H](CC(C)C)C(=O)N1CCC[C@H]1C(=O)N[C@@H](CCCNC(=N)N)C(=O)N[C@H](C(=O)N[C@@H](CCC(=O)O)C(=O)N[C@H](C(=O)NCC(=O)N[C@@H](CO)C(=O)NCC(=O)N[C@@H](CO)C(=O)N1CCC[C@H]1C(N)=O)[C@@H](C)O)[C@@H](C)O)[C@@H](C)O)[C@@H](C)O)[C@@H](C)O)[C@@H](C)CC` [Compound 176], the “Food intake (relative to vehicle) Day 1” value in data set [5] (day 1 [0-24 hours]) is recorded as −12%. The “Food intake (relative to vehicle) Day 2” value in data set [5] (day 2 [24-48 hours]) came to 2%. In addition, the “Food intake (relative to vehicle) Day 3” value in data set [5] (day 3 [48-72 hours]) came to 7%. In addition, the EC50 in data set [2] (setting [6]) worked out at 0.798 nM; in data set [2] (setting [7]) it was 0.0112 nM; in data set [3] (setting [8]) it was 0.178 nM; in data set [3] (method B, absence of HSA, read-out: hGLP-1R Potency, no HSA, EC50), 0.0299 nM; in data set [4] (setting [9]) it was 0.0238 nM; in data set [4] (setting [10]), 0.00366 nM.
